From ChEMBL document CHEMBL4699438, “Toward the discovery and development of effective modulators of α-synuclein amyloid aggregation” (Eur J Med Chem, 2019) come the findings set out here.

As a reminder, the Kd is the equilibrium constant for the complex coming apart. As a reminder, the IC50 is the concentration at which inhibition is half-maximal. A lower IC50 goes with higher potency.

For assay [1], the target named is T1, Alpha-synuclein (Homo sapiens, UniProt P37840). Kind of assay: Binding affinity to alpha-synuclein (unknown origin) expressed in Escherichia coli BL21(DE3) by circular dichroism analysis. (In general: Circular dichroism is the unequal absorption of left and right circularly polarised light.)
In assay [2] the target is T1, Alpha-synuclein. The assay is described as follows: Inhibition of alpha-synuclein fibril formation (unknown origin) incubated for 24 hrs to 7 days by thioflavin S based fluorescence assay.
The target in assay [3] is T1, Alpha-synuclein. Kind of assay: Inhibition of wild type alpha-synuclein aggregation (unknown origin) expressed in Escherichia coli BL21 cells incubated for 30 days by thioflavin T based fluorescence assay.
Assay [4] has as its target T1, Alpha-synuclein. Kind of assay: Binding affinity to alpha-synuclein preformed fibrils (unknown origin) expressed in Escherichia coli BL21(DE3) cells incubated for 30 mins by spectrofluorometric analysis.
Assay [5] concerns the target T1, Alpha-synuclein. Kind of assay: Binding affinity to alpha-synuclein oligomer (unknown origin) expressed in Escherichia coli BL21(DE3) cells incubated for 30 mins by spectrofluorometric analysis.
For assay [6], the target named is T1, Alpha-synuclein. The assay is described as follows: Binding affinity to alpha-synuclein LMV 100 kDa (unknown origin) expressed in Escherichia coli BL21(DE3) cells incubated for 30 mins by spectrofluorometric analysis.
In assay [7] the target is T1, Alpha-synuclein. The assay is described as follows: Binding affinity to alpha-synuclein LMV 50 kDa (unknown origin) expressed in Escherichia coli BL21(DE3) cells incubated for 30 mins by spectrofluorometric analysis.
Assay [8] in a line: Binding affinity to alpha-synuclein A69C/F94W double-mutant (unknown origin) expressed in Escherichia coli BL21(DE3) cells assessed as binding constant for binding single molecule at 10 uM incubated for 10 mins by fluorescence analysis. Details: species or system Homo sapiens.
A short description of assay [9]: Binding affinity to alpha-synuclein A69C/F94W double-mutant (unknown origin) expressed in Escherichia coli BL21(DE3) cells assessed as binding constant for binding single molecule at 10 uM by absorption spectroscopy. Set-up: species or system Homo sapiens.
Assay [10] can be described thus: Binding affinity to alpha-synuclein A69C/F94W double-mutant (unknown origin) expressed in Escherichia coli BL21(DE3) cells assessed as binding constant for binding single molecule at 10 uM incubated for 10 mins by tryptophan fluorescence assay. Set-up: species or system Homo sapiens.
Assay [11] can be described thus: Binding affinity to alpha-synuclein Y39W/A69C double-mutant (unknown origin) expressed in Escherichia coli BL21(DE3) cells assessed as binding constant for binding single molecule at 10 uM incubated for 10 mins by fluorescence analysis. Details: species or system Homo sapiens.
Assay [12] can be described thus: Binding affinity to alpha-synuclein A69C/F94W double-mutant (unknown origin) expressed in Escherichia coli BL21(DE3) cells assessed as binding constant for binding two molecule at 10 uM incubated for 10 mins by fluorescence analysis. Set-up: species or system Homo sapiens.
A short description of assay [13]: Binding affinity to alpha-synuclein A69C/F94W double-mutant (unknown origin) expressed in Escherichia coli BL21(DE3) cells assessed as binding constant for binding two molecule at 10 uM by absorption spectroscopy. Details: species or system Homo sapiens.
Assay [14] can be described thus: Binding affinity to alpha-synuclein A69C/F94W double-mutant (unknown origin) expressed in Escherichia coli BL21(DE3) cells assessed as binding constant for binding two molecule at 10 uM incubated for 10 mins by tryptophan fluorescence assay. Set-up: species or system Homo sapiens.
Assay [15] can be described thus: Binding affinity to alpha-synuclein Y39W/A69C double-mutant (unknown origin) expressed in Escherichia coli BL21(DE3) cells assessed as binding constant for binding two molecule at 10 uM incubated for 10 mins by fluorescence analysis. Details: species or system Homo sapiens.

`CO/N=C(\C(=O)N[C@@H]1C(=O)N2C(C(=O)O)=C(CSc3nc(=O)c(=O)[nH]n3C)CS[C@H]12)c1csc(N)n1` [CEFTRIAXONE]: the Kd on Alpha-synuclein [1] stood at 0.53 µM.
Consider `COc1cc(/C=C/C(=O)CC(=O)/C=C/c2ccc(O)c(OC)c2)ccc1O` [CURCUMIN], for which the IC50 on Alpha-synuclein [2] was 0.22 µM; on Alpha-synuclein [3] it was 162 µM. Besides, the Kd on Alpha-synuclein [4] turned out to be 0.5 µM; on Alpha-synuclein [5], 2 µM; at Alpha-synuclein [6] it was 5 µM; on Alpha-synuclein [7], 6.5 µM; in assay [8], 0.69 µM; in [9], 10 µM. Besides, the Kd in assay [10] stood at 58 µM; in assay [11], 0.56 µM; in assay [12] it was 7.7 µM; in assay [13], 21 µM; in assay [14], 20 µM; in assay [15] it was 0.85 µM.
